Here are results for one molecule from patent publication US6020363A, “Isocoumarin derivatives and use thereof in drugs” (Mercian Corporation, priority 1998, dated 2000).

Data set [1] deals with collagen-induced arthritis. As to the kind of experiment: Inhibitory Effect on Collagen-Induced Arthritis (No. 1), sole thickness. The format is in vivo, DBA/1J mice. The following applies: intraperitoneal, mean ± SD, *p < 0.05 vs control (8.02 ± 0.82). As to the method:
(§1) The preventive effect on the onset of collagen-induced arthritis was tested by using DBA/1J mice in groups of 5-8. Specifically, type II collagen was mixed with an equal volume of Freund's complete adjuvant and emulsified to prepare a 1 mg/ml emulsion. Mice were sensitized by administering 0.1 ml of this emulsion intracutaneously to the root of the tail. After 21 days, the mice were additionally immunized by emulsifying type II collagen in the same manner as before and administering 0.1 ml of the emulsion intraperitoneally so as to induce arthritis.
Starting from the day of the first sensitization with type II collagen, Compound 1 was orally administered, once a day, for 43 days in a dose of 10 or 30 mg/kg body weight. Similarly, each of Compounds 2 and 3 was intraperitoneally administered, once a day, for 43 days in a dose of 1 or 10 mg/kg body weight. Their inhibitory effect on collagen-induced arthritis was evaluated by measuring the sole thicknesses of the hind legs periodically with digital vernier calipers.

Another data set is described as follows: Acute toxicity in mice. The following applies: 100 mg/kg. In kind it is in vivo, DBA/1J mice. Here is the method: (§2) Among the compounds in accordance with the present invention, each of Compounds 1, 2 and 3 was orally or intraperitoneally administered to eight DBA/1J mice in a dose of 100 mg/kg body weight. […] This seems to indicate that the compounds used in the present invention have no or very little, if any, acute toxicity. Moreover, Compound 1, in a dose of 100 mg/kg body weight, or Compound 3, in a dose of 30 mg/kg body weight, was orally administered to eight mice of the aforesaid strain for 40 days. […] Thus, the compounds of the present invention have little subacute toxicity. Since other compounds in accordance with the present invention are estimated to have similar properties, the compounds of the present invention can be used very safely.

Details of data set [2]: species or system DBA/1J mice. The following applies: mouse, in vivo, po, 30 mg/kg. As to the method: as §2
The test system of a further data set is 5-lipoxygenase. Briefly: Effect on 5-lipoxygenase activity. In kind it is biochemical, rats. Here is the method:
Moreover, its inhibitory effect on 5-lipoxygenase was tested according to the method of Egan et al. (Journal of Biological Chemistry, 260: 11554-11559, 1985). Specifically, an enzyme preparation derived from the basophilic leukemia cells (RBL-1) of rats was used. This enzyme preparation, together with 30 μM Compound 3, was incubated at room temperature for 5 minutes, followed by the addition of linolenic acid. Thereafter, this mixture was incubated at room temperature for 8 minutes. After the reaction was stopped by the addition of a sodium hydroxide solution, its absorbance was measured at 234 nm.

For another data set, the system named is carrageenin edema. As to the kind of experiment: Effect on Carrageenin Edema. In kind it is in vivo, ICR mice. The following applies: for Degree of edema (%): 2 h after carrageenin, mean ± SE, control 47.4 ± 2.8. As to the method:
The effect on carrageenin edema was tested by using ICR mice in groups of 6-7. Specifically, Compound 3 was orally administered thereto in a dose of 3 or 30 mg/kg body weight. As a positive control drug, indomethacin was similarly administered in a dose of 20 mg/kg body weight. After 30 minutes, 25 μl of a 1% carrageenin solution was subcutaneously injected into the sole of the right hind leg. Two hours after the administration of carrageenin, the thickness of the sole was measured with digital vernier calipers, and the degree of edema (%) based on the thickness measured before administration was calculated.
A general note: In the carrageenan paw model, swelling and tenderness develop within hours.

Data set [3] concerns cyclooxygenase (or prostaglandin endoperoxide synthase). Briefly: Effect on cyclooxygenase activity. In kind it is biochemical, sheep. As to the method:
The inhibitory effect of Compound 3 on cyclooxygenase (or prostaglandin endoperoxide synthase) activity was tested according to the method of Evans et al. (Biochemical Pharmacology, 36: 2035-2037, 1987). Specifically, an enzyme preparation derived from the seminal vesicles of sheep was incubated at 27° C. for 1.5 minutes in the presence of 500 μM arachidonic acid and 300 μM Compound 3. After the reaction was stopped by adding trichloroacetic acid to the reaction mixture, its absorbance was measured at 532 nm.

Data set [4] has as its system neogenesis of tumor vessels induced by the transplanted mouse tumor S180. As to the kind of experiment: Inhibitory Effect on Vascularization Using the Mouse Back Subcutaneous Transplantation Method. The following applies: for Vascularization score: 5 days, mean ± SE, control 2.93 ± 0.07. The format is in vivo, male ICR mouse. As to the method:
The inhibitory effect of Compounds 1 and 3 in accordance with the present invention on the neogenesis of tumor vessels induced by the transplanted mouse tumor S180 was tested using the mouse back subcutaneous transplantation method. Specifically, 1×10^7 S180 cells were injected into a chamber formed by attaching a Millipore filter having a pore size of 0.45 μm to either side of a Millipore ring. After the injection hole was stopped up, this chamber was transplanted into an air sac formed beneath the skin of the back of a male ICR mouse (9-10 weeks old). Starting from the day of transplantation, a test compound or a solvent control comprising a 0.5% carboxymethylcellulose solution was orally administered for 5 days. After the skin was separated on the fifth day of transplantation, an O-ring of 10 mm internal diameter having the same shape as the Millipore ring was placed on the part of the skin which had been in contact with the chamber, observed under a stereoscopic microscope, and photographed.
In the photographs so taken, the degree of vascularization was rated 0, 1, 2 or 3 according to the number of 3 mm or longer tortuous blood vessels characteristic of tumoral vessels, and scored on the following basis.
0: No tumoral vessel was observed.
1: One tumoral vessel was observed.
2: Two tumoral vessels were observed.
3: Three or more tumoral vessels were observed.

Data set [5] deals with collagen-induced arthritis. As to the kind of experiment: Inhibitory Effect on Collagen-Induced Arthritis (No. 2), arthritis score. The following applies: oral, mean ± SE, maximum 16. The format is in vivo, DBA/1J mice. Here is the method:
as §1
Animals having arthritis induced in the same manner as described above were used in groups of 7-8. Compound 3 was orally administered, once a day, for 21 days following the additional immunization in a dose of 1, 3 or 10 mg/kg body weight. For comparative purposes, MI43 was similarly administered to another group in a dose of 30 mg/kg body weight. According to the degree of rubor, swelling and rigidity in each of the forelegs and hind legs of the experimental animals, their inhibitory effect on collagen-induced arthritis was evaluated on the following basis by a score ranging from 0 to 4 (with a maximum value of 16).
0: No symptom is observed.
2: Two or more small joints, or a relatively large joint such as that of the wrist or ankle, show rubor or swelling.
4: The total swelling of the hand or foot reaches its peak and, moreover, is accompanied by joint rigidity.

`COc1cc(O)c2c(=O)oc(C(C)C(=O)O)cc2c1` (stereo not drawn) [Compound 3, 2-(8-hydroxy-6-methoxy-1-oxo-1H-2-benzopyran-3-yl)propionic Acid]: the “Sole thickness (sum of left and right, mm), after 37 days” value was 7.08 ± 0.16 mm in data set [1] (1 mg/kg/day) and 6.78 ± 0.98 mm in data set [1] (10 mg/kg/day). Further, the “evidence of toxicity, single administration” value in the data set “Acute toxicity in mice” (mouse, in vivo) is reported as “no animal showed evidences of toxicity”. Moreover, the “mortality, single administration” value in “Acute toxicity in mice” (oral or intraperitoneal, eight DBA/1J mice) is “No animal died”. The “evidence of toxicity, 40 days” value in data set [2] is reported as “no animal showed evidences of toxicity”. Further, the “mortality, 40 days” value in data set [2] was “No animal died”. Moreover, the “Degree of inhibition (%), 5-Lipoxygenase” value in the data set with 5-lipoxygenase (30 μM Compound 3, n = 2) was 21.0%. The “inhibitory effect on lipoxygenase (in words)” value in the data set with 5-lipoxygenase (30 μM or 300 μM) is “no inhibitory effect on cyclooxygenase or lipoxygenase”. The “effect on carrageenin edema (in words)” value in the data set on carrageenin edema (doses of 3 and 30 mg/kg) is listed as “no inhibitory effect on carrageenin edema”. The “Degree of edema (%)” value with carrageenin edema (oral 3 mg/kg) was determined as 41.7 ± 3.1%; with carrageenin edema (oral 30 mg/kg) it was 46.1 ± 4.2%. For the same molecule, the “inhibitory effect on cyclooxygenase (in words)” value in data set [3] (30 μM or 300 μM) was “no inhibitory effect on cyclooxygenase or lipoxygenase”. Further, the “Degree of inhibition (%), Cyclooxygenase” value in data set [3] (300 μM Compound 3, 500 μM arachidonic acid, n = 2) is -4.0%. The Vascularization score in data set [4] (oral 0.3 mg/kg, n = 10) came to 2.40 ± 0.4; in data set [4] (oral 1.0 mg/kg, n = 11) it was 1.55 ± 0.43; in data set [4] (oral 3 mg/kg, n = 14) it was 0.86 ± 0.33; in data set [4] (oral 10 mg/kg, n = 14), 0.86 ± 0.38. Besides, the “inhibition of vascularization induced by tumor cell S180 (in words)” value in data set [4] (oral, 1-10 mg/kg body weight) is recorded as “significantly inhibited vascularization”. In addition, the “Score after 37 days” value in data set [5] (1 mg/kg/day, control 9.25 ± 1.35) was determined as 6.50 ± 1.49; in data set [5] (3 mg/kg/day, control 9.25 ± 1.35), 5.00 ± 1.61; in data set [5] (10 mg/kg/day, **p < 0.01 vs control (9.25 ± 1.35)), 3.50 ± 0.63.
